Data: paper PMC12301034, “Design and Synthesis of Boronic Chalcones with Dual Anticancer and Anti-Inflammatory Activity” (Molecules, 2025)
“Also recorded” adds a separate entry of the source.

Columns and labels:
Detroit-562 cells = test: MTT cytotoxicity assay on Detroit-562 cells; type: cell-based
Source text: (§1) The SCC-25 (ATCC® CRL-1628™), Detroit-562 (ATCC® CCL-138™), and THP-1 (ATCC® TIB-202™) cells were purchased from Rio de Janeiro Cell Bank (Duque de Caxias, Brazil), and NOK-si was kindly provided by Prof. Carlos Rossa from the School of Dentistry—UNESP. All the cells were cultivated according to standard conditions. Human colorectal adenocarcinoma HCT116 cell lines (ATCC® CCL-247™) expressing p53 and its p53-null isogenic derivative (HCT116 p53^−/−) were provided by B. Vogelstein (The Johns Hopkins Kimmel Cancer Center, Baltimore, MD, USA).
Cells (NOK-si, SCC-25, and Detroit-562) were grown in a DMEM medium (Dulbecco’s Modified Eagle Medium), supplemented according to the needs of each lineage, as recommended by its cell banks, with 2 mM L-glutamine, 10% or 20% fetal bovine serum (FBS), 1% antibiotic–antimycotic solution (5 mg/mL penicillin, 5 mg/mL streptomycin, and 10 mg/mL neomycin), 4.5 g/L of glucose, and 3.7 g/L of sodium bicarbonate (NaHCO3). All cell lines were cultured in flasks at 37 °C in 5% carbon dioxide (CO2) and 95% of relative humidity. The assays were conducted between the third- and the seventh-cell passage, with sub-cultures every 3–4 days to maintain exponential growth. The cell viability was checked using the trypan blue dye exclusion assay for all experiments, where over 95% of the cells were viable at the beginning of the tests. NOK-si, SCC-25, and Detroit-562 were initially thawed and cultured in 25 cm^2 cell culture flasks. Cell growth was monitored using a microscope, and the culture medium was changed periodically. […] Absorbance was read at 562 nm using an EZ Read 400 microplate reader (Biochrom, Cambridge, UK) and ADAP 2.0 Biochrom software (version 2.0). IC50 values and graphs were calculated using Excel and Prism software (version 10.4.1). The MTT assay results were evaluated for normality using the Shapiro–Wilk test, followed by one-way ANOVA with Tukey’s post hoc test at a significance level of 5%.

HCT116 p53^−/− cells = test: SRB cytotoxicity assay on HCT116 p53-/- cells; type: cell-based, human; settings: Homo sapiens, HCT-116, 48 h of treatment
Source text: as §1
HCT p53^+/+ and HCT p53^−/− cell lines were seeded in 96-well plates, with a concentration of 5000 cells/well, and allowed to adhere overnight. Afterwards, they were treated with serial dilutions of the compounds for an additional 48 h (compounds were prepared at 30 mM, in DMSO, and tested with a starting concentration of 50μM and 15 μM). Cells passed then through a series of essential steps (fixation with 10% trichloroacetic acid, for 1 h at 4 °C; staining with 0.4% sulforhodamine B (SRB); wash with 1% acetic acid; and solubilization with 10 mM Tris-Base); subsequently, absorbance was measured at 510 nm in a microplate reader (Biotek Instruments Inc., Synergy, MX, USA). IC50 values were determined using GraphPad Prism software, Version 7.0 (La Jolla, CA, USA).

SCC-25 cells = test: Annexin V-FITC/PI apoptosis/necrosis assay; type: cell-based, human; settings: SCC-25, 44.3 μM, 24 h
Experimental: For the assessment of the type of cell death, the treatment groups were 44.3 μM, 22.1 μM, and 9.45 μM compound 5, and the negative control without any treatment (only DMEM medium). Then, after 24 h of treatment, cell suspensions of 1 × 10^6 mL^–^1 (SCC-25) of each experimental condition were labeled, and the assay was performed according to the manufacturer’s protocol with the FITC Annexin V/Dead Cell Apoptosis Kit (Life Technologies, Eugene, OR, USA). Annexin V-FITC conjugated (510 nm) and propidium iodide (PI, 610 nm) fluorescence intensity were detected by automatic reading with the Countess™ II FL Automated Cell Counter (Life Technologies, Carlsbad, CA, USA). The cell population was calculated as a percentage of apoptotic cells labeled only with annexin V-FITC conjugated (green), necrotic cells labeled only as PI (red), and late apoptotic/necrotic cells (green and red).

[1] = Parallel artificial membrane permeability assay (PAMPA); type: in vitro ADME
Experimental: The parallel artificial membrane permeability assay (PAMPA) was performed using a 96-well pre-coated PAMPA plate system (Corning, Bedford, MA, USA). Solutions of test compounds and controls [metoprolol (Sigma-Aldrich, St. Louis, MO, USA) and nadolol (Sigma-Aldrich, St. Louis, MO, USA)] were prepared by diluting 10 mM stock solutions in DMSO with phosphate-buffered saline (PBS) at pH 6.5 to obtain a final concentration of 10 μM (final DMSO concentration ≤ 1%). The donor compartment was loaded with 300 μL of the prepared compound solutions, while the acceptor compartment received 200 μL of PBS pH 7.4. The plate was then assembled, and the system was incubated at 37 °C, with shaking at 100 rpm for 5 h. Samples of the initial donor solution (T0) were collected (10 μL) and transferred to an analysis plate. A quenching solution [10% water and 90% methanol: acetonitrile (50:50) + 50 nM tolbutamide (Sigma-Aldrich, St. Louis, MO, USA) as internal standard] was added (300 μL), along with 60 μL of PBS buffer pH 6.5. The analysis plate was stored at −20 °C. At the end of the incubation period, samples were collected from the donor and acceptor compartments and added to the analysis plate, following the same quenching procedure. The final concentrations of the compounds in the donor, acceptor, and T0 wells were quantified by an LCMS-8045 system (Shimazu, Kyoto, Japan). […]

permeability class [1]: high passive permeability
Papp at 5 h, 10 μM ([1]; donor pH 6.5, acceptor pH 7.4, 5 h, 37 °C, read-out: PAMPA (Mean Pe)): 175 nm/s
Compound: COc1cccc(C(=O)/C=C/c2cccc(B(O)O)c2)c1 [Compound 5, (E)-(3-(3-(3-methoxyphenyl)-3-oxoprop-1-en-1-yl)phenyl)boronic acid]
IC50 (Detroit-562 cells; Homo sapiens, MTT, 24 h incubation, Detroit-562 metastatic pharyngeal cancer model): 33.1 ± 5.1 µM
SI against the metastatic cell line (NOK-si vs Detroit-562) (Detroit-562 cells; selectivity index): greater than 1.7
IC50 (HCT116 p53^−/− cells): 2.16 ± 0.31 µM
viability at 44.3 µM (SCC-25 cells; Homo sapiens, read-out: proportion of viable cells): < 5%
type of cell death (SCC-25 cells; 22.1 μM and 9.45 μM): necrosis; also recorded: predominantly induces necrotic cell death
